From patent publication US12721823B2, “Methods and compositions for treatment of low circulating testosterone conditions” (University of Florida Research Foundation, Inc., priority 2021, dated 2026)

Legend:
Type in all cases: in vivo, rat
[1] = system: Crh, Grs, Erα, Erβ, aromatase, Gnrh, Nkcc1 and Kcc2 mRNA; assay: qRT-PCR of mRNA levels in hypothalamus and hippocampus
Protocol: Levels of mRNA for Nkcc1 and Kcc2 in the hypothalamus and hippocampus, for Crh, Erα, Erβ, aromatase, GnRH in the hypothalamus, and for Grs in the hippocampus were analyzed via reverse transcription-PCR (qRT-PCR) in a StepOnePlus™ Real-Time PCR System (Applied Biosystems, Foster City, CA) as previously described. 5 RNA was extracted from the samples using an RNeasy Plus Kit (Qiagen, Valencia, CA), reverse transcribed with a high-capacity cDNA reverse transcription kit (Bio-Rad Laboratories, Hercules, CA), and then analyzed via qRT-PCR. Taqman probes specific for the above genes were obtained from Applied Biosystems (Carlsbad, CA): Crh (Rn01462137_m1), Gr (Rn00561369_m1), Erα (Rn01430446_m1), Erβ (Rn00562610_m1), aromatase (Rn00567222_m1), Gnrh (Rn00562754_m1), Nkcc1 (Rn00582505_m1) and Kcc2 (Rn00592624_m1). Data were normalized to glyceraldehyde-3-phosphate dehydrogenase (Gapdh) mRNA (Rn01775763_g1). Gene expression was calculated using the ΔΔCT method and data are presented as relative fold change from that of control animals.

Kcc2 gene promoter = assay: Bisulfite sequencing of CpG sites in the Kcc2 gene promoter; details: for DNA methylation in the Kcc2 gene promoter: vs con-M*con-F; for methylation of CpG sites in the Kcc2 gene promoter: vs control
Protocol: Genomic DNA was extracted from the sperm pellet and ovaries of adult G1 rats and from hippocampal and hypothalamic tissues of G2 rats using the DNeasy Blood and Tissue kit (Qiagen, Hilden, Germany). The sodium bisulfite conversion was performed with EZ DNA Methylation kits (Zymo Research, Irvine, CA) following the manufacturer's instructions. The primers (Kcc2: forward: […] (SEQ ID NO: 1); reverse: […] (SEQ ID NO: 2) were designed for the bisulfite-converted DNA sequences, using previously published sequences. 5 PCR amplification was performed with HotStar Taq (Qiagen, Hilden, Germany). Amplicons were cloned into pCR4-TOPO vector with the TOPO TA cloning kit for sequencing (Life Technologies, Carlsbad, CA). Miniprep was performed on each positive clone using ZR Plasmid Miniprep kit (Zymo Research, Irvine, CA). Sanger sequencing was done by Genewiz (South Plainfield, NJ, USA) using M13R primers. The DNA methylation status of all CpG sites was analyzed using Benchling Molecular Biology 2.0 Software (Benchling, San Francisco, CA). The bisulfite sequencing analysis of the Kcc2 DNA was performed only in G2 male progeny of con-M*con-F and sevo-M*sevo-F matings.

Sprague-Dawley rats [2] = assay: Elevated plus maze (EPM)
Description: (§1) Sixty-four G1 rats (32 control and 32 sevoflurane exposed) and 122 G2 rats, which were not exposed to sevoflurane anesthesia and were subjected to animal facility rearing only, were studied. The G1 rats were sequentially evaluated in the EPM starting on ~P125, PPI of the acoustic startle response on ~P135 and MWM starting ~on P145 (FIG. 1). One half of these animals were sacrificed on ≥P160 to collect trunk blood, brain and testis and ovarian tissues for further analyses. The rest of these animals were physically restrained for 30 min on ≥P160 to measure corticosterone responses, followed by collection of tissue samples (as above) for further analyses. The G2 rats were evaluated in the EPM starting on P60 and PPI of startle on P70 (FIG. 1). One half of these animals were sacrificed on ≥P95 to collect trunk blood and brain tissue samples for further analyses, and the rest of these animals were tested for the corticosterone responses to physical restraint for 30 min on ≥P95 before collecting the trunk blood and brain tissue samples.
The EPM studies were performed using an EPM apparatus and BIO-EPM 3C video tracking software (EB Instruments, Pinellas Park, FL) during the light phase of the dark-light cycle as previously described by our laboratory.^5-7 If a fall occurred, the animal was removed from the study (one G1 male rat was removed from the study for this reason).

Sprague-Dawley rats [3] = assay: Prepulse inhibition (PPI) of startle; details: for startle amplitudes: all experimental groups; for PPI of startle at PP3: vs offspring of unexposed parents
Description: as §1
The PPI of startle tests were performed using a SR-Lab startle apparatus (San Diego Instruments, San Diego, CA) as previously described.^5-7 The % PPI for each prepulse level was calculated using the following formula: % PPI=100×[(pulse alone)−(prepulse+pulse)]/pulse alone. Data were collected as Vmax amplitude.

[4] = G1 female rats, control vs sevoflurane-exposed
[5] = G1 female rats, more than 3 months after exposure
[6] = G1 male rats, more than 3 months after exposure
[7] = G2 female rats, parental sevoflurane exposure
[8] = G2 females, parental sevoflurane exposures
[9] = G2 male offspring of both exposed parents
[10] = G2 males, all four treatment groups
[11] = G1 male rats, more than two months after exposure, vs control
[12] = G2 females, all groups of parental exposure

## FCOC(C(F)(F)F)C(F)(F)F [sevoflurane, 1,1,1,3,3,3-hexafluoro-2-(fluoromethoxy)propane]
[1]; [4]
  hippocampal Kcc2 mRNA levels: similar
  hippocampal Nkcc1 mRNA levels: similar
[1]; [5]
  Kcc2 mRNA levels in the hypothalamus: unaltered
  Nkcc1 mRNA levels in the hypothalamus: unaltered
[1]; G1 female rats, vs control
  hippocampal Gr mRNA levels: Neither hypothalamic Crh mRNA levels (FIG. 4C) nor hippocampal GrmRNA levels (FIG. 4D) were different
  hypothalamic Crh mRNA levels: Neither hypothalamic Crh mRNA levels (FIG. 4C) nor hippocampal GrmRNA levels (FIG. 4D) were different
  hypothalamic levels of Erα mRNA: not different
  hypothalamic levels of Erβ mRNA: slightly, though significantly increased
  hypothalamic levels of Gnrh mRNA: no significant treatment effects
  increase in hypothalamic aromatase mRNA: did not achieve statistical significance
[1]; G1 male rats, 2 hours after the restraint, vs control
  hypothalamic Crh mRNA levels: increased
[1]; [6]
  Kcc2 mRNA levels in the hippocampus: significantly reduced
  Kcc2 mRNA levels in the hypothalamus: decreased
  Nkcc1 mRNA levels in the hippocampus: but not Nkcc1 mRNA levels
  Nkcc1 mRNA levels in the hypothalamus: normal
[1]; G1 male rats, vs control
  Gr mRNA in the hippocampus: reduced
  hypothalamic levels of Era mRNA: increased
  hypothalamic levels of Erβ mRNA: decreased
  hypothalamic levels of Gnrh mRNA: increased
  hypothalamic levels of aromatase mRNA: significantly increased
[1]; [7]
  hippocampal Gr mRNA levels: no significant between-subjects effects
  hypothalamic Crh mRNA: no significant between-subjects effects
[1]; [8]
  Kcc2 mRNA level in the hippocampus: not significant
  Kcc2 mRNA levels in the hypothalamus: not significant
  Nkcc1 mRNA level in the hippocampus: not significant
  Nkcc1 mRNA levels in the hypothalamus: not significant
[1]; [9]
  hippocampal Kcc2 mRNA levels: reduced
[1]; G2 male offspring of exposed fathers and control mothers
  hippocampal Kcc2 mRNA levels: reduced
[1]; G2 male progeny of sevoflurane exposed fathers and mothers, vs offspring of control parents
  hypothalamic Kcc2 mRNA levels: lower levels
[1]; [10]
  Crh mRNA in the hypothalamus: not different
  Gr mRNA levels in the hippocampus: not different
[1]; G2 males, parental sevoflurane exposure
  Nkcc1 mRNA levels in the hippocampus: no significant effects
Kcc2 gene promoter; hippocampus of G2 male progeny of both exposed parents, CpG site 1
  DNA methylation in the Kcc2 gene promoter: increased DNA methylation
Kcc2 gene promoter; hippocampus of G2 male progeny of both exposed parents, CpG site 2
  DNA methylation in the Kcc2 gene promoter: increased DNA methylation
Kcc2 gene promoter; hippocampus of G2 male progeny of both exposed parents, CpG site 3
  DNA methylation in the Kcc2 gene promoter: increased DNA methylation
Kcc2 gene promoter; hypothalamus of G2 male progeny of both exposed parents, CpG site 1
  DNA methylation in the Kcc2 gene promoter: increased DNA methylation
Kcc2 gene promoter; hypothalamus of G2 male progeny of both exposed parents, CpG site 2
  DNA methylation in the Kcc2 gene promoter: increased DNA methylation
Kcc2 gene promoter; hypothalamus of G2 male progeny of both exposed parents, CpG site 3
  DNA methylation in the Kcc2 gene promoter: increased DNA methylation
Kcc2 gene promoter; ovarian tissue of G1 female rats, CpG site 1
  methylation of CpG sites in the Kcc2 gene promoter: increased methylation
Kcc2 gene promoter; ovarian tissue of G1 female rats, CpG site 2
  methylation of CpG sites in the Kcc2 gene promoter: increased methylation
Kcc2 gene promoter; sperm of G1 male rats, CpG site 1
  methylation of CpG sites in the Kcc2 gene promoter: increased methylation
Kcc2 gene promoter; sperm of G1 male rats, CpG site 2
  methylation of CpG sites in the Kcc2 gene promoter: increased methylation
Sprague-Dawley rats [2]; G1 female rats, vs control
  EPM parameters (time in open arms, number of crossings, distance traveled): no significant between-subjects effect
Sprague-Dawley rats [2]; [11]
  distance traveled, EPM: did not differ
  number of crossings, EPM: did not differ
  time spent in open arms, EPM: spent less time in open arms
Sprague-Dawley rats [2]; [12]
  distances traveled, EPM: similar
  number of crossings, EPM: similar
  time spent in open arms, EPM: similar
Sprague-Dawley rats [2]; [9]
  distance traveled, EPM: shorter distances
  number of crossings, EPM: fewer crossings
Sprague-Dawley rats [2]; G2 male progeny of exposed fathers and exposed mothers, vs offspring of control parents
  time spent in open arms, EPM: spent less time in open arms
Sprague-Dawley rats [2]; G2 male progeny of sevoflurane exposed fathers and unexposed mothers, vs offspring of control parents
  time spent in open arms, EPM: spent less time in open arms
Sprague-Dawley rats [2]; G2 male progeny of unexposed fathers and exposed mothers, vs offspring of control parents
  time spent in open arms, EPM: spent less time in open arms
Sprague-Dawley rats [3]; G1 male rats, prepulse intensity of 3 dB, vs control
  PPI of startle responses: impaired PPI of startle responses
Sprague-Dawley rats [3]; G2 female rats
  startle amplitudes: similar
Sprague-Dawley rats [3]; [7]
  PPI of startle: no significant treatment effect
Sprague-Dawley rats [3]; G2 male rats
  startle amplitudes: similar
Sprague-Dawley rats [3]; G2 males of both exposed parents
  PPI of startle at PP3: reduced PPI of startle
Sprague-Dawley rats [3]; G2 males of control fathers and exposed mothers
  PPI of startle at PP3: reduced PPI of startle
